In the supplement of paper PMC10307832:

Key:
Assay in all cases: relative viability (nuclei count vs DMSO), 5 days (fraction); higher = more cells survive
EHT 1864 = compound: C1COCCN1CC2=CC(=O)C(=CO2)OCCCCCSC3=C4C=CC(=CC4=NC=C3)C(F)(F)F [EHT 1864]
Procedure, shortened: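 For viability, nuclei in each treated well were divided by nuclei in vehicle wells and the median across plates was taken. Lung cancer cell lines in 1536-well plates were pinned with five library-drug doses (not always all listed) spaced by √10, cultured 5 days without medium change, and imaged at 4× after Hoechst staining, with plates passing only at control CV below 25% and at least one doubling.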

EHT 1864 + Foretinib = compound: C1COCCN1CC2=CC(=O)C(=CO2)OCCCCCSC3=C4C=CC(=CC4=NC=C3)C(F)(F)F [EHT 1864] + COc1cc2c(Oc3ccc(NC(=O)C4(C(=O)Nc5ccc(F)cc5)CC4)cc3F)ccnc2cc1OCCCN1CCOCC1 [Foretinib] (partner 0.25 µM)
Procedure, shortened: (§1)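 For relative viability, nuclei counts in treated wells were divided by those in vehicle wells. Lung cancer cell lines had been pin-tool dosed in 1536-well plates the day after seeding and cultured for 5 days, then fixed and stained in one step (final 0.05% Triton X-100, 1% formaldehyde, 1 ug/ml Hoechst) and imaged at 4×. Doses were one drug alone or a fixed anchor-drug dose plus five library-drug doses (not always all listed) in √10 steps, and values are duplicate-plate medians.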

EHT 1864 + Pictilisib = compound: C1COCCN1CC2=CC(=O)C(=CO2)OCCCCCSC3=C4C=CC(=CC4=NC=C3)C(F)(F)F [EHT 1864] + CS(=O)(=O)N1CCN(Cc2cc3nc(-c4cccc5[nH]ncc45)nc(N4CCOCC4)c3s2)CC1 [Pictilisib] (partner 1 µM)
Procedure, shortened: as §1

EHT 1864 + Olaparib = compound: C1COCCN1CC2=CC(=O)C(=CO2)OCCCCCSC3=C4C=CC(=CC4=NC=C3)C(F)(F)F [EHT 1864] + O=C(c1cc(Cc2n[nH]c(=O)c3ccccc23)ccc1F)N1CCN(C(=O)C2CC2)CC1 [Olaparib] (partner 8 µM)
Procedure, shortened: as §1

EHT 1864 + Lapatinib = compound: C1COCCN1CC2=CC(=O)C(=CO2)OCCCCCSC3=C4C=CC(=CC4=NC=C3)C(F)(F)F [EHT 1864] + CS(=O)(=O)CCNCc1ccc(-c2ccc3ncnc(Nc4ccc(OCc5cccc(F)c5)c(Cl)c4)c3c2)o1 [Lapatinib] (partner 2 µM)
Procedure, shortened: as §1

EHT 1864 + Linsitinib = compound: C1COCCN1CC2=CC(=O)C(=CO2)OCCCCCSC3=C4C=CC(=CC4=NC=C3)C(F)(F)F [EHT 1864] + C[C@]1(O)C[C@@H](c2nc(-c3ccc4ccc(-c5ccccc5)nc4c3)c3c(N)nccn32)C1 [Linsitinib] (partner 1 µM)
Procedure, shortened: as §1

EHT 1864 + Crizotinib = compound: C1COCCN1CC2=CC(=O)C(=CO2)OCCCCCSC3=C4C=CC(=CC4=NC=C3)C(F)(F)F [EHT 1864] + C[C@@H](Oc1cc(-c2cnn(C3CCNCC3)c2)cnc1N)c1c(Cl)ccc(F)c1Cl [Crizotinib] (partner 1 µM)
Procedure, shortened: as §1

EHT 1864 + Bortezomib = compound: C1COCCN1CC2=CC(=O)C(=CO2)OCCCCCSC3=C4C=CC(=CC4=NC=C3)C(F)(F)F [EHT 1864] + CC(C)C[C@H](NC(=O)[C@H](Cc1ccccc1)NC(=O)c1cnccn1)B(O)O [Bortezomib] (partner 0.002 µM)
Procedure, shortened: as §1

EHT 1864 + Alpelisib = compound: C1COCCN1CC2=CC(=O)C(=CO2)OCCCCCSC3=C4C=CC(=CC4=NC=C3)C(F)(F)F [EHT 1864] + Cc1nc(NC(=O)N2CCC[C@H]2C(N)=O)sc1-c1ccnc(C(C)(C)C(F)(F)F)c1 [Alpelisib] (partner 2 µM)
Procedure, shortened: as §1

EHT 1864 + Navitoclax = compound: C1COCCN1CC2=CC(=O)C(=CO2)OCCCCCSC3=C4C=CC(=CC4=NC=C3)C(F)(F)F [EHT 1864] + CC1(C)CCC(c2ccc(Cl)cc2)=C(CN2CCN(c3ccc(C(=O)NS(=O)(=O)c4ccc(N[C@H](CCN5CCOCC5)CSc5ccccc5)c(S(=O)(=O)C(F)(F)F)c4)cc3)CC2)C1 [Navitoclax] (partner 0.5 µM)
Procedure, shortened: as §1

## NCI-H1299
EHT 1864; 0.04 µM
  relative viability: 1.01
EHT 1864; 0.1265 µM
  relative viability: 0.976
EHT 1864; 0.4 µM
  relative viability: 0.964
EHT 1864; 1.265 µM
  relative viability: 0.979
EHT 1864; 4 µM
  relative viability: 0.956
EHT 1864 + Foretinib; first compound 0.04 µM
  relative viability: 1.05
EHT 1864 + Foretinib; first compound 0.1265 µM
  relative viability: 1.09
EHT 1864 + Foretinib; first compound 0.4 µM
  relative viability: 1.06
EHT 1864 + Foretinib; first compound 1.265 µM
  relative viability: 1.04
EHT 1864 + Foretinib; first compound 4 µM
  relative viability: 1.07
EHT 1864 + Pictilisib; first compound 0.04 µM
  relative viability: 0.71
EHT 1864 + Pictilisib; first compound 0.1265 µM
  relative viability: 0.669
EHT 1864 + Pictilisib; first compound 0.4 µM
  relative viability: 0.725
EHT 1864 + Pictilisib; first compound 1.265 µM
  relative viability: 0.729
EHT 1864 + Pictilisib; first compound 4 µM
  relative viability: 0.684
EHT 1864 + Olaparib; first compound 0.04 µM
  relative viability: 0.96
EHT 1864 + Olaparib; first compound 0.1265 µM
  relative viability: 0.939
EHT 1864 + Olaparib; first compound 0.4 µM
  relative viability: 0.964
EHT 1864 + Olaparib; first compound 1.265 µM
  relative viability: 0.913
EHT 1864 + Olaparib; first compound 4 µM
  relative viability: 0.893
EHT 1864 + Lapatinib; first compound 0.04 µM
  relative viability: 0.969
EHT 1864 + Lapatinib; first compound 0.1265 µM
  relative viability: 0.904
EHT 1864 + Lapatinib; first compound 0.4 µM
  relative viability: 0.949
EHT 1864 + Lapatinib; first compound 1.265 µM
  relative viability: 0.931
EHT 1864 + Lapatinib; first compound 4 µM
  relative viability: 0.909
EHT 1864 + Linsitinib; first compound 0.04 µM
  relative viability: 0.903
EHT 1864 + Linsitinib; first compound 0.1265 µM
  relative viability: 0.877
EHT 1864 + Linsitinib; first compound 0.4 µM
  relative viability: 0.981
EHT 1864 + Linsitinib; first compound 1.265 µM
  relative viability: 0.969
EHT 1864 + Linsitinib; first compound 4 µM
  relative viability: 0.936
EHT 1864 + Crizotinib; first compound 0.04 µM
  relative viability: 0.928
EHT 1864 + Crizotinib; first compound 0.1265 µM
  relative viability: 0.975
EHT 1864 + Crizotinib; first compound 0.4 µM
  relative viability: 0.95
EHT 1864 + Crizotinib; first compound 1.265 µM
  relative viability: 0.925
EHT 1864 + Crizotinib; first compound 4 µM
  relative viability: 0.901
EHT 1864 + Bortezomib; first compound 0.04 µM
  relative viability: 1.02
EHT 1864 + Bortezomib; first compound 0.1265 µM
  relative viability: 0.986
EHT 1864 + Bortezomib; first compound 0.4 µM
  relative viability: 0.993
EHT 1864 + Bortezomib; first compound 1.265 µM
  relative viability: 0.994
EHT 1864 + Bortezomib; first compound 4 µM
  relative viability: 0.917
EHT 1864 + Alpelisib; first compound 0.04 µM
  relative viability: 0.973
EHT 1864 + Alpelisib; first compound 0.1265 µM
  relative viability: 0.974
EHT 1864 + Alpelisib; first compound 0.4 µM
  relative viability: 0.983
EHT 1864 + Alpelisib; first compound 1.265 µM
  relative viability: 1.05
EHT 1864 + Alpelisib; first compound 4 µM
  relative viability: 1.08
EHT 1864 + Navitoclax; first compound 0.04 µM
  relative viability: 1.02
EHT 1864 + Navitoclax; first compound 0.1265 µM
  relative viability: 1.02
EHT 1864 + Navitoclax; first compound 0.4 µM
  relative viability: 1.05
EHT 1864 + Navitoclax; first compound 1.265 µM
  relative viability: 0.986
EHT 1864 + Navitoclax; first compound 4 µM
  relative viability: 0.984
